The values that follow come from patent publication US8580965B2, “Substituted sulfonamide compounds” (Gruenenthal GmbH, priority 2006, dated 2013).

For orientation: inhibition means the relative decrease from the control value, in per cent.

In test [1] the target is T1, human B1R receptor (bradykinin 1 receptor) (Homo sapiens, UniProt P46663).
T1 construct: host or cells: CHO K1 cells (hB1R cells)
T1 sequence (P46663 1-353): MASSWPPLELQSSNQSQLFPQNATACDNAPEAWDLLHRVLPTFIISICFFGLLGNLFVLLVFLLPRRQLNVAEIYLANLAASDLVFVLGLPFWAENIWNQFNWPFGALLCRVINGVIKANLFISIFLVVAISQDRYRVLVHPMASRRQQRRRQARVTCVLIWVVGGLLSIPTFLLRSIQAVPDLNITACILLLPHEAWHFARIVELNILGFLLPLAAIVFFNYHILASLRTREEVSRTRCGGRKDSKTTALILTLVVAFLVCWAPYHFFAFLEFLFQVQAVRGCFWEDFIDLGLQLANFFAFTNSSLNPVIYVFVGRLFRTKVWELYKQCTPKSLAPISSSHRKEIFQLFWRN
As to the kind of experiment: FLIPR Ca2+ assay (Fluo-4) on CHO K1 cells stably transfected with the human B1R gene; % activation and % inhibition at 10 μM. Type of test: cell-based. Particulars: CHO-K1, test substance 10 μM; CHO K1 hB1R cells; Ca2+ inflow after 0.5 nM Lys-Des-Arg9-bradykinin; read-out: B1R antagonism, human [10 μM] % inhibition. In a few lines: (§1)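 Fluo-4 Ca2+ flux on FLIPR in stable hB1R or rB1R CHO K1 lines, two additions. Agonism: 10 µM compound versus 0.5 nM Lys-Des-Arg9-BK (human) or 100 nM Des-Arg9-BK (rat); antagonism: same agonists applied 10 min later, suppression expressed against maximum achievable inhibition.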

Test [2] deals with T2, B1R receptor of the rat (bradykinin 1 receptor) (Rattus norvegicus, UniProt P97583).
T2 construct: host or cells: CHO K1 cells (rB1R cells)
T2 sequence (P97583 1-337): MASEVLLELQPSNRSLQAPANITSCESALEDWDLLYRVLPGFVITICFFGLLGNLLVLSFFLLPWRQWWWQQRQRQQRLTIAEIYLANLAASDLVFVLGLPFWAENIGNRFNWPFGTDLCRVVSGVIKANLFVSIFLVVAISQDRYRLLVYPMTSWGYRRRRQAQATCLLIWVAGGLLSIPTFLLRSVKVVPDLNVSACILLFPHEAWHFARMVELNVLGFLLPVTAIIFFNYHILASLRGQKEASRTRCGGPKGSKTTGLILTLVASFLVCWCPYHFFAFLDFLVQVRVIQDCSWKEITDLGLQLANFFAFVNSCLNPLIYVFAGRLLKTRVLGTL
As to the kind of experiment: FLIPR Ca2+ assay (Fluo-4) on CHO K1 cells stably transfected with the B1R gene of the rat; % activation and % inhibition at 10 μM. The class given is cell-based. As to conditions: CHO-K1, test substance 10 μM; CHO K1 rB1R cells; Ca2+ inflow after 100 nM Des-Arg9-bradykinin; read-out: B1R antagonism, rat [10 μM] % inhibition. In a few lines:
as §1

For the compound `O=C(COCC1CCCN1S(=O)(=O)c1c(Cl)cccc1Cl)N1CCC(O)(c2ccc(Br)cc2)CC1` (stereo not drawn) [Example 219, 1-(4-(4-bromophenyl)-4-hydroxypiperidin-1-yl)-2-((1-(2,6-dichlorophenylsulfonyl)pyrrolidin-2-yl)methoxy)ethanone], the values for the inhibition at 10 µM in test [1] and in test [2] were 102% and 101%, respectively.
In the case of `O=C(COCC1CCCN1S(=O)(=O)c1c(Cl)cccc1Cl)N1CCC(O)(c2ccccc2)CC1` (stereo not drawn) [Example 220, 2-((1-(2,6-dichlorophenylsulfonyl)pyrrolidin-2-yl)methoxy)-1-(4-hydroxy-4-phenylpiperidin-1-yl)ethanone], the inhibition at 10 µM stood at 99% in test [1] and 102% in test [2].
Consider `O=C(COCC1CCCN1S(=O)(=O)c1c(Cl)cccc1Cl)N1CCC(O)(Cc2ccccc2)CC1` (stereo not drawn) [Example 221, 1-(4-benzyl-4-hydroxypiperidin-1-yl)-2-((1-(2,6-dichlorophenylsulfonyl)pyrrolidin-2-yl)methoxy)ethanone], for which the results for the inhibition at 10 µM in test [1] and in test [2] were 23.5% and 89.5%, respectively.
With `O=C(COCC1CCCN1S(=O)(=O)c1c(Cl)cccc1Cl)N1CCC(O)(c2cccc(C(F)(F)F)c2)CC1` (stereo not drawn) [Example 222, 2-((1-(2,6-dichlorophenylsulfonyl)pyrrolidin-2-yl)methoxy)-1-(4-hydroxy-4-(3-(trifluoromethyl)phenyl)piperidin-1-yl)ethanone], the inhibition at 10 µM in test [1] was found to be 102%; in test [2], 103%.
For `O=C(COCC1CCCN1S(=O)(=O)c1cc(Cl)sc1Cl)N1CCC(O)(c2ccc(Cl)c(C(F)(F)F)c2)CC1` (stereo not drawn) [Example 223, 1-(4-(4-chloro-3-(trifluoromethyl)phenyl)-4-hydroxypiperidin-1-yl)-2-((1-(2,5-dichlorothiophen-3-ylsulfonyl)pyrrolidin-2-yl)methoxy)ethanone], the figures for the inhibition at 10 µM in test [1] and in test [2] were 15.1% and 99.5%, respectively.
With `O=C(COCC1CCCN1S(=O)(=O)c1cc(Cl)sc1Cl)N1CCC(O)(c2ccc(Br)cc2)CC1` (stereo not drawn) [Example 224, 1-(4-(4-bromophenyl)-4-hydroxypiperidin-1-yl)-2-((1-(2,5-dichlorothiophen-3-ylsulfonyl)pyrrolidin-2-yl)methoxy)ethanone], the inhibition at 10 µM was determined as 49.1% in test [1] and 102% in test [2].
`O=C(COCC1CCCN1S(=O)(=O)c1cc(Cl)sc1Cl)N1CCC(O)(c2ccccc2)CC1` (stereo not drawn) [Example 225, 2-((1-(2,5-dichlorothiophen-3-ylsulfonyl)pyrrolidin-2-yl)methoxy)-1-(4-hydroxy-4-phenylpiperidin-1-yl)ethanone]: the inhibition at 10 µM in test [1] stood at 43.1%; in test [2] it was 88.5%.
On to `O=C(COCC1CCCN1S(=O)(=O)c1cc(Cl)sc1Cl)N1CCC(O)(Cc2ccccc2)CC1` (stereo not drawn) [Example 226, 1-(4-benzyl-4-hydroxypiperidin-1-yl)-2-((1-(2,5-dichlorothiophen-3-ylsulfonyl)pyrrolidin-2-yl)methoxy)ethanone], for which the inhibition at 10 µM in test [1] came out at 13%; in test [2] it was 72.4%.
With `O=C(COCC1CCCN1S(=O)(=O)c1cc(Cl)sc1Cl)N1CCC(O)(c2cccc(C(F)(F)F)c2)CC1` (stereo not drawn) [Example 227, 2-((1-(2,5-dichlorothiophen-3-ylsulfonyl)pyrrolidin-2-yl)methoxy)-1-(4-hydroxy-4-(3-(trifluoromethyl)phenyl)piperidin-1-yl)ethanone], the figures for the inhibition at 10 µM in test [1] and in test [2] were 7.61% and 80.9%, respectively.
In the case of `COc1cc(C)c(S(=O)(=O)N2CCC(COCC(=O)N3CCC(O)(c4ccc(Cl)c(C(F)(F)F)c4)CC3)C2)c(C)c1` (stereo not drawn) [Example 228, 1-(4-(4-chloro-3-(trifluoromethyl)phenyl)-4-hydroxypiperidin-1-yl)-2-((1-(4-methoxy-2,6-dimethylphenylsulfonyl)pyrrolidin-3-yl)methoxy)ethanone], the inhibition at 10 µM in test [1] was 95%; in test [2], 101%.
For the compound `O=C(COCC1CCCCN1S(=O)(=O)c1cc(Cl)sc1Cl)N1CCC(O)(c2cccnc2)CC1` (stereo not drawn) [Example 229, 2-((1-(2,5-dichlorothiophen-3-ylsulfonyl)piperidin-2-yl)methoxy)-1-(4-hydroxy-4-(pyridin-3-yl)piperidin-1-yl)ethanone], the inhibition at 10 µM was found to be 65.5% in test [1] and 100% in test [2].
As to `COc1cc(C)c(S(=O)(=O)N2CCC(COCC(=O)N3CCC(O)(c4ccc(Br)cc4)CC3)C2)c(C)c1` (stereo not drawn) [Example 230, 1-(4-(4-bromophenyl)-4-hydroxypiperidin-1-yl)-2-((1-(4-methoxy-2,6-dimethylphenylsulfonyl)pyrrolidin-3-yl)methoxy)ethanone], the inhibition at 10 µM in test [1] and in test [2] was 100% throughout.
Consider `COc1cc(C)c(S(=O)(=O)N2CCC(COCC(=O)N3CCC(O)(c4cccc(C(F)(F)F)c4)CC3)C2)c(C)c1` (stereo not drawn) [Example 231, 1-(4-hydroxy-4-(3-(trifluoromethyl)phenyl)piperidin-1-yl)-2-((1-(4-methoxy-2,6-dimethylphenylsulfonyl)pyrrolidin-3-yl)methoxy)ethanone], for which the inhibition at 10 µM in test [1] was 102%; in test [2], 98.7%.
As to `COc1cc(C)c(S(=O)(=O)N2Cc3ccccc3CC2COCC(=O)N2CCC(O)(Cc3ccccc3)CC2)c(C)c1C` (stereo not drawn) [Example 232, 1-(4-benzyl-4-hydroxypiperidin-1-yl)-2-((2-(4-methoxy-2,3,6-trimethylphenylsulfonyl)-1,2,3,4-tetrahydroisoquinolin-3-yl)methoxy)ethanone], the figures for the inhibition at 10 µM in test [1] and in test [2] were 54.5% and 63.1%, respectively.
Turning to `COc1cc(C)c(S(=O)(=O)N2Cc3ccccc3CC2COCC(=O)N2CCC(O)(c3cccc(C(F)(F)F)c3)CC2)c(C)c1C` (stereo not drawn) [Example 233, 1-(4-hydroxy-4-(3-(trifluoromethyl)phenyl)piperidin-1-yl)-2-((2-(4-methoxy-2,3,6-trimethylphenylsulfonyl)-1,2,3,4-tetrahydroisoquinolin-3-yl)methoxy)ethanone], the inhibition at 10 µM in test [1] was determined as 38.9%; in test [2] it was 70.2%.
In the same order, the values of `O=C(COCC1CCCCN1S(=O)(=O)c1c(Cl)cccc1Cl)N1CCC(O)(c2ccc(Br)cc2)CC1` (stereo not drawn) [Example 234, 1-(4-(4-bromophenyl)-4-hydroxypiperidin-1-yl)-2-((1-(2,6-dichlorophenylsulfonyl)piperidin-2-yl)methoxy)ethanone] are 102% and 99.3%.
Turning to `O=C(COCC1CCCCN1S(=O)(=O)c1c(Cl)cccc1Cl)N1CCC(O)(c2cccc(C(F)(F)F)c2)CC1` (stereo not drawn) [Example 235, 2-((1-(2,6-dichlorophenylsulfonyl)piperidin-2-yl)methoxy)-1-(4-hydroxy-4-(3-(trifluoromethyl)phenyl)piperidin-1-yl)ethanone], the results for the inhibition at 10 µM in test [1] and in test [2] were 103% and 99.9%, respectively.
As for `O=C(COCC1CCCCN1S(=O)(=O)c1c(Cl)cccc1Cl)N1CCC(O)(c2ccc(Cl)c(C(F)(F)F)c2)CC1` (stereo not drawn) [Example 236, 1-(4-(4-chloro-3-(trifluoromethyl)phenyl)-4-hydroxypiperidin-1-yl)-2-((1-(2,6-dichlorophenylsulfonyl)piperidin-2-yl)methoxy)ethanone], the inhibition at 10 µM in test [1] worked out at 102%; in test [2] it was 99.9%.
